Laboratory results reported in patent US20060148714A1, “Therapeutic peptide-based constructs” (priority 1999, published 2006).
Converted amounts (≈) assume the structure as drawn. Where a SMILES comes first, the peptide text is derived from it. Where no end group is shown, it is not given here. [ ]: non-standard residue; d: D form. The star is where a group is joined. 2‑biphenylenecarbonyl = O=C(c1ccc2c(c1)-c1ccccc1-2)*; Acetyl(2-naphthyl) = O=C(Cc1ccc2ccccc2c1)*; d1Nal = N[C@H](Cc1cccc2ccccc12)C(=O)O

What was measured:
[1] = tested on: Factor Xa neutralization by ATIII/heparin complexes; experiment: Chromostrate heparin anti-Factor Xa assay (heparin neutralization); type: biochemical; details: absorbance at 405 nm
[2] = Behaviour in 1 mg/ml stock solution; type: physicochemical; parameters: key: b: precipitated in 1 mg/ml stock solution; details: no IC50 given
[3] = tested on: human umbilical vein endothelial cells (HUVEC); type: cell-based; details: 72 h
Experimental: Briefly, human umbilical vein endothelial cells (HUVEC) were cultured in EGM-2 medium (Clonetics Corp., San Diego, Calif.), harvested and plated onto a 96-well culture plate. After 24 hours of quiescence, the cells were co-cultured with various peptide-based constricts in the presence of growth factors for 72 hours to test their activity. Cell proliferation was quantitated by tritiated thymidine incorporation into DNA and was expressed in counts per minute (cpm).
Details of the experimental procedures were as follows: HUVEC cells were cultured in EGM-2 media from Clonetics Corp., a subsidiary of BioWhittaker, Inc., San Diego, Calif. [EGM-2 is Endothelial Cell Basal Medium-2 (EMB-2) supplemented with growth factors (hFGF-B, VEGF, IGF-1, hEGF) ascorbic acid, heparin, GA-1000 and 2% FBS), in T75 flasks until confluent (˜4-7 days). Cells were harvested by trypsinizing the cells using 0.025% trypsin/EDTA for 5 minutes. To stop the reaction, 2-5% FBS was added. The cells were centrifuged and washed 3 times using Hank's Balanced Salt Solution (HBSS) or Dulbecco's Phosphate Buffered Saline D-PBS. The pellet was then resuspended in EBM-2 supplemented with 0.1% FBS and GA-1000 was used. The cells were counted and a cell suspension was prepared at 2×10^5/mL in EBM-2 with 0.1% FBS; cells were dispensed into a 96-well flat bottomed culture plate at 0.1 mL/well (total: ˜20,000 cells/well in 0.1% FBS-EBM-2). Incubation continued at 37° C. in 5% CO2 for 20-24 hours. The next day peptide-based constructs were prepared for testing in a 96 well plate. The supernatant was aspirated from the cell-well, replaced with EBM-2 or the testing reagent at 20 μL/well. Then, 180 μL/well of 1.12% FBS-GFS were added to make a final concentration of 1% FBS-GFS in EBM-2. This aspiration and addition was done well-by-well. ^3H-thymidine (100 μCi/mL) was added at 10 μL/well (1 μCi/well, final). Incubation continued at 37° C., 5% CO2 for 72 hours. To harvest the plate, the supernatant was aspirated off from the cell-well and then 75 μL-100 μL/well of 0.025% trypsin-EDTA was added. After incubation for 8-10 minutes at room temperature in the hood, the cells were checked and 100 μL/well of 2-5% FBS-PBS was added to stop the reaction. The plate was then harvested, dried and counted using an Inotech cell harvester (Inotech Biosystems, INB-384, Sample Processing and Filter Counting System, Lansing, Mich.).

[4] = tested on: retinal endothelial cells; experiment: Retinal endothelial cell growth stimulated by VEGF (DNA content); type: cell-based, bovine; details: 5 μg/mL and 15 μg/mL
Experimental: In these experiments, peptide-based constructs are tested for their activity on the action of VEGF, bFGF, IGF-1 and conditioned media (hypoxia and hyperglycemia) on the in vitro growth and migration of retinal pigmented epithelial cells (RPE), retinal microvessel pericytes, and retinal endothelial cells. Effects are evaluated on gene expression under hypoxic or […] conditions. In additional experiments, the effects of such constructs are characterized in vivo on the neovascular responses to hyperoxia in the retina of the neonatal mouse.
For the in vitro culture experiments, retinal microvessel pericytes, retinal endothelial cells, and retinal pigmented epithelial cells (RPE) are cultured from bovine retina. Dose responses and time course for growth and migration as stimulated by VEGF, bFGF, and IGF-1 are performed. For example, retinal endothelial cell growth as stimulated by VEGF was inhibited with 5 μg/mL and 15 μg/mL XMP.679 as measured by DNA content (ng/cell well). […] When the dose responses of these growth factors and conditioned media are determined, the effect of peptide-based constructs independently, and in combination with the growth factors described above, are tested in growth and migration assays.

[5] = tested on: E. coli (J5 and 0111 B4), Staphylococcus aureus and Candida albicans; experiment: Broth and/or radial diffusion antimicrobial assays; type: cell-based

Compound	Assay A: percent heparin neutralization relative to protamine (100%) [1] [%]	Assay B: percent heparin neutralization relative to protamine (100%) [1] [%]	precipitated in 1 mg/ml stock solution [2]	IC50 [3] [µg/mL]	cell growth by DNA content in treated VEGF-stimulated cells versus unstimulated cells [4]	retinal endothelial cell growth as stimulated by VEGF, measured by DNA content (ng/cell well) [4]	antimicrobial activity [5]
2-biphenylenecarbonyl-k-l-f-r-(naph-a)-q-a-k ({2‑biphenylenecarbonyl}-[dK][dL][dF][dR][dNal][dQ][dA][dK]; not fully specified; printed as 2-biphenylenecarbonyl-k-l-f-r-(naph-a)-q-a-k) [XMP.699]	45	23	b	–	–	–	–
2-naphthylacetyl-k-l-f-r-(naph-a)-q-a-k ({Acetyl(2-naphthyl)}-[dK][dL][dF][dR][dNal][dQ][dA][dK]; not fully specified; printed as 2-naphthylacetyl-k-l-f-r-(naph-a)-q-a-k) [XMP.666]	39	18	b	–	–	–	–
CC(C)C[C@@H](NC(=O)[C@H](N)CCCCN)C(=O)N[C@H](Cc1ccccc1)C(=O)N[C@H](CCCCN)C(=O)N[C@H](Cc1cccc2ccccc12)C(=O)N[C@H](CCC(N)=O)C(=O)N[C@H](C)C(=O)N[C@H](CCCCN)C(=O)N[C@H](Cc1cccc2ccccc12)C(=O)N[C@H](CCCCN)C(=O)NCC(N)=O [XMP.679, k-l-f-k-(naph-a)-q-a-k-(naph-a)-k-g] (H-[dK][dL][dF][dK][d1Nal][dQ][dA][dK][d1Nal][dK]G-NH2; N-terminus assumed)	96	94	–	6.3 ± 0.9 (≈ 4.37 µM)	comparable with that of cells not stimulated by VEGF	inhibited	highest antimicrobial activities
